From patent US9688684B2, “Substituted tetrazolo[1,5-a]pyrazines as ROR-gamma inhibitors” (Merck Patent GmbH, priority 2013, dated 2017)

Key:
[1] = biological target: human RORγ ligand binding domain (GST-hRORγ-LBD) (Homo sapiens (Human), UniProt P51449); experiment: TR-FRET assay (biochemical cofactor interaction assay, GST-hRORγ-LBD / TRAP220 peptide)
Source text: RORγ is an orphan member of the nuclear receptor (NR) family displaying constitutive activity. The activity of nuclear receptors can be modulated by ligand-induced cofactor protein interactions. For example, agonist binding leads to recruitment of coactivator protein, and antagonist binding either blocks coactivator interaction or facilitates the recruitment of corepressors. […] The conformational change induced by ligand binding influences interactions with LXXLL motif peptides.
RORγ (t) is a thymus-specific isoform of RORγ which is widely expressed. It shares the same ligand binding domain (LBD) sequence with RORγ. Thus, a screen using the LBD will yield antagonists targeting both RORγ and RORγt.
In order to identify compounds which block activity of the human nuclear receptor Retinoid-related Orphan Receptor gamma (RORγ) a biochemical cofactor interaction assay based on the TR-FRET principle is performed. […] The ligand-binding domain (LBD) of RORγ is expressed as fusion protein with GST in […] cells using the vector pDEST15. Cells are lysed by lysozyme-treatment and sonication, and the fusion proteins purified over glutathione sepharose (Pharmacia) according to the manufacturers instructions. The strong constitutive interaction is disrupted upon binding of functional antagonists. The strength of the interaction is monitored by TR-FRET between streptavidine APC interacting with the biotinylated peptide and Europium-labelled Anti-GST.

[2] = biological target: RORγ Ligand binding domain (RORγ-LBD, aa 238-497, NP_001001523) (Homo sapiens (Human), UniProt P51449); experiment: ROR γ GAI4 Reporter Gene Assay (Mammalian one-hybrid, M1H) in 293T cells; type: cell-based
RORγ Ligand binding domain (RORγ-LBD, aa 238-497, NP_001001523), sequence (P51449 259-518): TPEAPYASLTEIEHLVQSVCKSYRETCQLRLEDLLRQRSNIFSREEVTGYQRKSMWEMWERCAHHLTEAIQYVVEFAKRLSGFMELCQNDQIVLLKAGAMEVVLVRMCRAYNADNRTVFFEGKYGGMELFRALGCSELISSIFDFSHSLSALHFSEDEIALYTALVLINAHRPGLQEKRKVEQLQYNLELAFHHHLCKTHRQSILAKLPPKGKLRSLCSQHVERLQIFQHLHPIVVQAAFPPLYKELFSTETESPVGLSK
Source text: ROR γ GAI4 Reporter Gene Assay
A Mammalian one-hybrid system is used to perform a cell-based functional transactivation assay for detecting RORγ activity modulators.
The Mammalian-1-Hybrid is derived from the Mammalian-2-Hybrid setup. Whereas in the latter, the binding partners are defined in their role as interaction, transactivation and DNA-binding components, the Mammalian-1-Hybrid makes use of the fact that all mammalian cell types express a set of Nuclear Receptors and their associated cofactors. […] A Gal4 minimal promoter driven luciferase construct (pFR-Luc from Stratagene, containing a synthetic promoter with five tandem repeats of the yeast GAL4 binding sites controlling expression of the Photinus pyralis luciferase gene) is used as reporter. The Gal4-DBD-NR-LBD fusion protein by itself cannot initiate transcription and is dependent on the presence of cofactors present in the cellular system used.
In order to rule out cytotoxic and unspecific transcriptional compound effects a transfection with a firefly luciferase driven by the constitutive CMV promoter is performed in parallel.
After transfection 18 μl complete MEM medium containing 3% charcoal-dextran treated FBS is added as well as 4 μl test compounds (DMSO stocks prediluted in OptiMem (Invitrogen)) followed by incubation for 16-24 h at 37° C., 5% CO2 and 90% rH.
Firefly luciferase activity is measured using the Promega ONE-Glo™ Luciferase Assay System.

human RORγ ligand binding domain (GST-hRORγ-LBD), sequence (P51449 269-508): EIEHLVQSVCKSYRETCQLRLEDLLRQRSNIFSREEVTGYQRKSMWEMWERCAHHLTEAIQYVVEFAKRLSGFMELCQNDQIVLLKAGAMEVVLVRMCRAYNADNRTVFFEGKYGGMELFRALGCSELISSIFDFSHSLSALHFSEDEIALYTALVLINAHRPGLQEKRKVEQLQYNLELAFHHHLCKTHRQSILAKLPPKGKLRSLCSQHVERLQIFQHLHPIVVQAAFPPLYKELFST

Compound	IC50 [1] [µM]	IC50 [2] [µM]
Cc1ccc(CN2CCn3nnnc3C2c2ccc(OC(C)C)cc2)o1 (stereo not drawn) [Compound 142, 8-(4-Isopropoxy-phenyl)-7-(5-methyl-furan-2-ylmethyl)-5,6,7,8-tetrahydro-tetrazolo[1,5-a]pyrazine]	9.9 to 40	9.9 to 40
Fc1cccc(CN2CCn3nnnc3C2c2cccc(F)c2)c1 (stereo not drawn) [Compound 38, 7-(3-Fluoro-benzyl)-8-(3-fluoro-phenyl)-5,6,7,8-tetrahydro-tetrazolo[1,5-a]pyrazine]	0.99 to 9.9	0.99 to 9.9
Fc1ccccc1C1c2nnnn2CCN1Cc1cccc(Br)c1 (stereo not drawn) [Compound 119, 7-(3-Bromo-benzyl)-8-(2-fluoro-phenyl)-5,6,7,8-tetrahydro-tetrazolo[1,5-a]pyrazine]	0.99 to 9.9	0.99 to 9.9
COc1ccc(OC)c(CN2CCn3nnnc3C2c2cccc(F)c2F)c1 (stereo not drawn) [Compound 71, 8-(2,3-Difluoro-phenyl)-7-(2,5-dimethoxy-benzyl)-5,6,7,8-tetrahydro-tetrazolo[1,5-a]pyrazine]	9.9 to 40	9.9 to 40
CC(C)c1nn(-c2ccccc2)cc1C1c2nnnn2CCN1Cc1cccs1 (racemic) [Compound 61, 8-(3-Isopropyl-1-phenyl-1H-pyrazol-4-yl)-7-thiophen-2-ylmethyl-5,6,7,8-tetrahydro-tetrazolo[1,5-a]pyrazine]	0.01 to 0.99	0.01 to 0.99
Cc1cccc(CN2CCn3nnnc3C2c2ccc3c(c2)OCCO3)c1 (stereo not drawn) [Compound 95, 8-(2,3-Dihydro-benzo[1,4]dioxin-6-yl)-7-(3-methyl-benzyl)-5,6,7,8-tetrahydro-tetrazolo[1,5-a]pyrazine]	0.01 to 0.99	0.99 to 9.9
Clc1ccc(C2c3nnnn3CCN2Cc2cccs2)cc1 (stereo not drawn) [Compound 106, 8-(4-Chloro-phenyl)-7-thiophen-2-ylmethyl-5,6,7,8-tetrahydro-tetrazolo[1,5-a]pyrazine]	0.01 to 0.99	9.9 to 40
Brc1cccc(CN2CCn3nnnc3C2C2CCCCC2)c1 (stereo not drawn) [Compound 65, 7-(3-Bromo-benzyl)-8-cyclohexyl-5,6,7,8-tetrahydro-tetrazolo[1,5-a]pyrazine]	9.9 to 40	9.9 to 40
Fc1ccc(C2c3nnnn3CCN2Cc2cccc(Br)c2)cc1 (racemic) [Compound 96, 7-(3-Bromo-benzyl)-8-(4-fluoro-phenyl)-5,6,7,8-tetrahydro-tetrazolo[1,5-a]pyrazine]	0.01 to 0.99	0.99 to 9.9
Fc1cccc(C2c3nnnn3CCN2Cc2cccc(Br)c2)c1 (stereo not drawn) [Compound 163, 7-(3-Bromo-benzyl)-8-(3-fluoro-phenyl)-5,6,7,8-tetrahydro-tetrazolo[1,5-a]pyrazine]	0.01 to 0.99	9.9 to 40
CC(C)c1nn(-c2ccccc2)cc1CN1CCn2nnnc2C1c1cccs1 (stereo not drawn) [Compound 48, 7-(3-Isopropyl-1-phenyl-1H-pyrazol-4-ylmethyl)-8-thiophen-2-yl-5,6,7,8-tetrahydro-tetrazolo[1,5-a]pyrazine]	0.01 to 0.99	9.9 to 40
CC(C)(C)c1nn(Cc2ccccc2)cc1C1c2nnnn2CCN1Cc1cccs1 (stereo not drawn) [Compound 160, 8-(1-Benzyl-3-tert-butyl-1H-pyrazol-4-yl)-7-thiophen-2-ylmethyl-5,6,7,8-tetrahydro-tetrazolo[1,5-a]pyrazine]	9.9 to 40	0.99 to 9.9
COc1ccc(C2c3nnnn3CCN2Cc2ccc(F)cc2)cc1 (stereo not drawn) [Compound 146, 7-(4-Fluoro-benzyl)-8-(4-methoxy-phenyl)-5,6,7,8-tetrahydro-tetrazolo[1,5-a]pyrazine]	9.9 to 40	0.99 to 9.9
COc1ccc(OC)c(C2c3nnnn3CCN2Cc2ccc(F)cc2)c1 (stereo not drawn) [Compound 128, 8-(2,5-Dimethoxy-phenyl)-7-(4-fluoro-benzyl)-5,6,7,8-tetrahydro-tetrazolo[1,5-a]pyrazine]	0.99 to 9.9	9.9 to 40
Fc1ccccc1C1c2nnnn2CCN1Cc1cccs1 (stereo not drawn) [Compound 137, 8-(2-Fluoro-phenyl)-7-thiophen-2-ylmethyl-5,6,7,8-tetrahydro-tetrazolo[1,5-a]pyrazine]	0.99 to 9.9	9.9 to 40
CCOc1ccc(C2c3nnnn3CCN2Cc2ccc(F)cc2)cc1 (stereo not drawn) [Compound 134, 8-(4-Ethoxy-phenyl)-7-(4-fluoro-benzyl)-5,6,7,8-tetrahydro-tetrazolo[1,5-a]pyrazine]	0.99 to 9.9	9.9 to 40
Cc1cccc(CN2CCn3nnnc3C2c2ccc(F)cc2)c1 (single isomer, unassigned) [Compound 93-a, 8-(4-Fluoro-phenyl)-7-(3-methyl-benzyl)-5,6,7,8-tetrahydro-tetrazolo[1,5-a]pyrazine]	0.01 to 0.99	0.99 to 9.9
Fc1ccc(C2c3nnnn3CCN2Cc2cccc(Br)c2)cc1 (single isomer, unassigned) [Compound 96-a, 7-(3-Bromo-benzyl)-8-(4-fluoro-phenyl)-5,6,7,8-tetrahydro-tetrazolo[1,5-a]pyrazine]	0.01 to 0.99	0.99 to 9.9
Fc1cccc(C2c3nnnn3CCN2Cc2cccs2)c1 (stereo not drawn) [Compound 117, 8-(3-Fluoro-phenyl)-7-thiophen-2-ylmethyl-5,6,7,8-tetrahydro-tetrazolo[1,5-a]pyrazine]	0.99 to 9.9	9.9 to 40
Cc1cccc(CN2CCn3nnnc3C2c2ccc(F)cc2F)c1 (stereo not drawn) [Compound 136, 8-(2,4-Difluoro-phenyl)-7-(3-methyl-benzyl)-5,6,7,8-tetrahydro-tetrazolo[1,5-a]pyrazine]	0.99 to 9.9	9.9 to 40
Fc1ccc(CN2CCn3nnnc3C2c2cccc(F)c2)cc1 (single isomer, unassigned) [Compound 91-b, 7-(4-Fluoro-benzyl)-8-(3-fluoro-phenyl)-5,6,7,8-tetrahydro-tetrazolo[1,5-a]pyrazine]	0.99 to 9.9	0.99 to 9.9
Fc1ccc(C2c3nnnn3CCN2Cc2ccccc2)cc1 (stereo not drawn) [Compound 102, 7-Benzyl-8-(4-fluoro-phenyl)-5,6,7,8-tetrahydro-tetrazolo[1,5-a]pyrazine]	0.01 to 0.99	9.9 to 40
CC(C)c1nn(-c2ccccc2)cc1C1c2nnnn2CCN1Cc1cnn(Cc2ccccc2)c1 (stereo not drawn) [Compound 161, 7-(1-Benzyl-1H-pyrazol-4-ylmethyl)-8-(3-isopropyl-1-phenyl-1H-pyrazol-4-yl)-5,6,7,8-tetrahydro-tetrazolo[1,5-a]pyrazine]	0.99 to 9.9	0.99 to 9.9
CC(C)c1nn(-c2ccccc2)cc1C1c2nnnn2CCN1Cc1ccc2c(c1)OCO2 (stereo not drawn) [Compound 58, 7-Benzo[1,3]dioxol-5-ylmethyl-8-(3-isopropyl-1-phenyl-1H-pyrazol-4-yl)-5,6,7,8-tetrahydro-tetrazolo[1,5-a]pyrazine]	9.9 to 40	0.99 to 9.9
Fc1cc(F)cc(C2c3nnnn3CCN2Cc2ccccc2)c1 (stereo not drawn) [Compound 101, 7-Benzyl-8-(3,5-difluoro-phenyl)-5,6,7,8-tetrahydro-tetrazolo[1,5-a]pyrazine]	0.01 to 0.99	9.9 to 40
COc1ccc(OC)c(CN2CCn3nnnc3C2c2cn(-c3ccccc3)nc2C(C)C)c1 (stereo not drawn) [Compound 54, 7-(2,5-Dimethoxy-benzyl)-8-(3-isopropyl-1-phenyl-1H-pyrazol-4-yl)-5,6,7,8-tetrahydro-tetrazolo[1,5-a]pyrazine]	9.9 to 40	9.9 to 40
CC(C)Oc1ccc(C2c3nnnn3CCN2Cc2ccc3c(c2)OCO3)cc1 (stereo not drawn) [Compound 131, 7-Benzo[1,3]dioxol-5-ylmethyl-8-(4-isopropoxy-phenyl)-5,6,7,8-tetrahydro-tetrazolo[1,5-a]pyrazine]	0.99 to 9.9	9.9 to 40
Cc1cccc(C2c3nnnn3CCN2Cc2cn(-c3ccccc3)nc2C(C)C)c1 (stereo not drawn) [Compound 27, 7-(3-Isopropyl-1-phenyl-1H-pyrazol-4-ylmethyl)-8-m-tolyl-5,6,7,8-tetrahydro-tetrazolo[1,5-a]pyrazine]	9.9 to 40	
CN(C)c1ccc(CN2CCn3nnnc3C2C2CCCCC2)cc1 (stereo not drawn) [Compound 66, [4-(8-Cyclohexyl-5,6-dihydro-8H-tetrazolo[1,5-a]pyrazin-7-ylmethyl)-phenyl]-dimethyl-amine]	9.9 to 40	
c1csc(CN2CCn3nnnc3C2c2cccs2)c1 (stereo not drawn) [Compound 47, 8-Thiophen-2-yl-7-thiophen-2-ylmethyl-5,6,7,8-tetrahydro-tetrazolo[1,5-a]pyrazine]	9.9 to 40	
